US20200370087A1, “METHOD FOR DETERMINING MICROBIAL SUSCEPTIBILITY TO ANTIBIOTIC AGENTS” (Ascilion AB, priority 2017, published 2020)
≈ marks a conversion by molar mass, not a printed value.

Legend:
[1] = system: Enterococcus faecalis (ATCC 29212); test: Glucose consumption susceptibility test, blood culture diluted in MHB with glucose (Example 1); format: cell-based; parameters: glucose concentration, t = 0 / glucose concentration, t = 60 / glucose concentration, t = 120 / glucose concentration, t = 180 / glucose concentration, t = 240 / dC/dT (rate of change in glucose concentration): unit not given here; details: for F = the rate of change in glucose concentration in relation to the reference / dC/dT (rate of change in glucose concentration) / glucose concentration, t = 0 / glucose concentration, t = 60 / glucose concentration, t = 120 / glucose concentration, t = 180 / glucose concentration, t = 240: E. faecalis; for glucose concentration, t = 0: 0 minutes; for glucose concentration, t = 60: 60 minutes; for glucose concentration, t = 120: 120 minutes; for glucose concentration, t = 180: 180 minutes; for glucose concentration, t = 240: 240 minutes
Protocol: (§1) Strains of Escherichia coli (ATCC 25922), Enterococcus faecalis (ATCC 29212) and Staphylococcus aureus (ATCC 29213) were inoculated in blood culture bottles (SVA, Uppsala, Sweden) and cultivated according to the manufacturer's instructions until positive.
(§2) Medium from each blood culture bottle was diluted 1:100 with cation adjusted Mueller-Hinton broth (SVA, Uppsala, Sweden) supplemented with glucose to a concentration of 1.0 mg/mL.
(§3) Glucose concentrations were measured at 0, 60, 120, 180, and 240 minutes using a WaveSense Jazz glucometer (AgaMatrix, Inc., Salem, N.H., USA) with accompanying test strips.
(§4) Susceptibility scores corresponding to MIC values were calculated as described above. A 80% threshold was applied, i.e. the lowest concentration of antibiotic that entailed a rate of change in glucose concentration that was equal to or less than 80% of the reference was selected as the Minimal Inhibitory Concentration. The rate of change was calculated between the measurements at 60 and 180 minutes.

[2] = system: Escherichia coli (ATCC 25922); test: as above; format: cell-based; parameters: glucose concentration, t = 0 / glucose concentration, t = 60 / glucose concentration, t = 120 / glucose concentration, t = 180 / dC/dT (rate of change in glucose concentration) / glucose concentration, t = 240: unit not given here; details: E. coli; for glucose concentration, t = 60: 60 minutes; for glucose concentration, t = 120: 120 minutes; for glucose concentration, t = 180: 180 minutes
Protocol: as §1, §2, §3, §4

CN[C@H](CC(C)C)C(=O)N[C@H]1C(=O)N[C@@H](CC(N)=O)C(=O)N[C@H]2C(=O)N[C@H]3C(=O)N[C@H](C(=O)N[C@H](C(=O)O)c4cc(O)cc(O)c4-c4cc3ccc4O)[C@H](O)c3ccc(c(Cl)c3)Oc3cc2cc(c3O[C@@H]2O[C@H](CO)[C@@H](O)[C@H](O)[C@H]2O[C@H]2C[C@](C)(N)[C@H](O)[C@H](C)O2)Oc2ccc(cc2Cl)[C@H]1O [Vancomycin, vancomycin]
F = the rate of change in glucose concentration in relation to the reference ([1]; antibiotic 0.0625 μg/mL): 93% | dC/dT (rate of change in glucose concentration) ([1]; antibiotic 0.0625 μg/mL): 34 | glucose concentration, t = 0 ([1]; antibiotic 0.0625 μg/mL): 145 | glucose concentration, t = 60 ([1]; antibiotic 0.0625 μg/mL): 156 | glucose concentration, t = 120 ([1]; antibiotic 0.0625 μg/mL): 139 | glucose concentration, t = 180 ([1]; antibiotic 0.0625 μg/mL): 89 | F = the rate of change in glucose concentration in relation to the reference ([1]; antibiotic 0.125 μg/mL): 83% | dC/dT (rate of change in glucose concentration) ([1]; antibiotic 0.125 μg/mL): 30 | glucose concentration, t = 0 ([1]; antibiotic 0.125 μg/mL): 148 | glucose concentration, t = 60 ([1]; antibiotic 0.125 μg/mL): 154 | glucose concentration, t = 120 ([1]; antibiotic 0.125 μg/mL): 149 | glucose concentration, t = 180 ([1]; antibiotic 0.125 μg/mL): 94 | F = the rate of change in glucose concentration in relation to the reference ([1]; antibiotic 0.25 μg/mL): 82% | dC/dT (rate of change in glucose concentration) ([1]; antibiotic 0.25 μg/mL): 30 | glucose concentration, t = 0 ([1]; antibiotic 0.25 μg/mL): 143 | glucose concentration, t = 60 ([1]; antibiotic 0.25 μg/mL): 155 | glucose concentration, t = 120 ([1]; antibiotic 0.25 μg/mL): 146 | glucose concentration, t = 180 ([1]; antibiotic 0.25 μg/mL): 96 | F = the rate of change in glucose concentration in relation to the reference ([1]; antibiotic 0.5 μg/mL): 82% | dC/dT (rate of change in glucose concentration) ([1]; antibiotic 0.5 μg/mL): 30 | glucose concentration, t = 0 ([1]; antibiotic 0.5 μg/mL): 154 | glucose concentration, t = 60 ([1]; antibiotic 0.5 μg/mL): 155 | glucose concentration, t = 120 ([1]; antibiotic 0.5 μg/mL): 148 | glucose concentration, t = 180 ([1]; antibiotic 0.5 μg/mL): 96 | F = the rate of change in glucose concentration in relation to the reference ([1]; antibiotic 1 μg/mL): 75% | dC/dT (rate of change in glucose concentration) ([1]; antibiotic 1 μg/mL): 27 | glucose concentration, t = 0 ([1]; antibiotic 1 μg/mL): 151 | glucose concentration, t = 60 ([1]; antibiotic 1 μg/mL): 164 | glucose concentration, t = 120 ([1]; antibiotic 1 μg/mL): 153 | glucose concentration, t = 180 ([1]; antibiotic 1 μg/mL): 110 | F = the rate of change in glucose concentration in relation to the reference ([1]; antibiotic 2 μg/mL): 29% | dC/dT (rate of change in glucose concentration) ([1]; antibiotic 2 μg/mL): 11 | glucose concentration, t = 0 ([1]; antibiotic 2 μg/mL): 147 | glucose concentration, t = 60 ([1]; antibiotic 2 μg/mL): 160 | glucose concentration, t = 120 ([1]; antibiotic 2 μg/mL): 152 | glucose concentration, t = 180 ([1]; antibiotic 2 μg/mL): 139 | glucose concentration, t = 240 ([1]; antibiotic 2 μg/mL): 94 | F = the rate of change in glucose concentration in relation to the reference ([1]; antibiotic 4 μg/mL): 19% | dC/dT (rate of change in glucose concentration) ([1]; antibiotic 4 μg/mL): 7 | glucose concentration, t = 0 ([1]; antibiotic 4 μg/mL): 147 | glucose concentration, t = 60 ([1]; antibiotic 4 μg/mL): 162 | glucose concentration, t = 120 ([1]; antibiotic 4 μg/mL): 153 | glucose concentration, t = 180 ([1]; antibiotic 4 μg/mL): 148 | glucose concentration, t = 240 ([1]; antibiotic 4 μg/mL): 149 | F = the rate of change in glucose concentration in relation to the reference ([1]; antibiotic 8 μg/mL): 7% | dC/dT (rate of change in glucose concentration) ([1]; antibiotic 8 μg/mL): 3 | glucose concentration, t = 0 ([1]; antibiotic 8 μg/mL): 150 | glucose concentration, t = 60 ([1]; antibiotic 8 μg/mL): 156 | glucose concentration, t = 120 ([1]; antibiotic 8 μg/mL): 146 | glucose concentration, t = 180 ([1]; antibiotic 8 μg/mL): 151 | glucose concentration, t = 240 ([1]; antibiotic 8 μg/mL): 145 | MIC ([1]; Enterococcus faecalis, ATCC29212, read-out: MIC, Measured): 1 µg/mL (≈ 0.69 µM) | F = the rate of change in glucose concentration in relation to the reference ([2]; antibiotic 0.0625 μg/mL): 67% | dC/dT (rate of change in glucose concentration) ([2]; antibiotic 0.0625 μg/mL): 42 | glucose concentration, t = 60 ([2]; antibiotic 0.0625 μg/mL): 148 | glucose concentration, t = 120 ([2]; antibiotic 0.0625 μg/mL): 144 | glucose concentration, t = 180 ([2]; antibiotic 0.0625 μg/mL): 65 | F = the rate of change in glucose concentration in relation to the reference ([2]; antibiotic 0.125 μg/mL): 71% | dC/dT (rate of change in glucose concentration) ([2]; antibiotic 0.125 μg/mL): 44 | glucose concentration, t = 60 ([2]; antibiotic 0.125 μg/mL): 153 | glucose concentration, t = 120 ([2]; antibiotic 0.125 μg/mL): 154 | glucose concentration, t = 180 ([2]; antibiotic 0.125 μg/mL): 65 | F = the rate of change in glucose concentration in relation to the reference ([2]; antibiotic 0.25 μg/mL): 68% | dC/dT (rate of change in glucose concentration) ([2]; antibiotic 0.25 μg/mL): 42 | glucose concentration, t = 60 ([2]; antibiotic 0.25 μg/mL): 150 | glucose concentration, t = 120 ([2]; antibiotic 0.25 μg/mL): 145 | glucose concentration, t = 180 ([2]; antibiotic 0.25 μg/mL): 66 | F = the rate of change in glucose concentration in relation to the reference ([2]; antibiotic 0.5 μg/mL): 65% | dC/dT (rate of change in glucose concentration) ([2]; antibiotic 0.5 μg/mL): 41 | glucose concentration, t = 60 ([2]; antibiotic 0.5 μg/mL): 149 | glucose concentration, t = 120 ([2]; antibiotic 0.5 μg/mL): 145 | glucose concentration, t = 180 ([2]; antibiotic 0.5 μg/mL): 68 | F = the rate of change in glucose concentration in relation to the reference ([2]; antibiotic 1 μg/mL): 73% | dC/dT (rate of change in glucose concentration) ([2]; antibiotic 1 μg/mL): 45 | glucose concentration, t = 60 ([2]; antibiotic 1 μg/mL): 155 | glucose concentration, t = 120 ([2]; antibiotic 1 μg/mL): 149 | glucose concentration, t = 180 ([2]; antibiotic 1 μg/mL): 65 | F = the rate of change in glucose concentration in relation to the reference ([2]; antibiotic 2 μg/mL): 65% | dC/dT (rate of change in glucose concentration) ([2]; antibiotic 2 μg/mL): 40 | glucose concentration, t = 60 ([2]; antibiotic 2 μg/mL): 147 | glucose concentration, t = 120 ([2]; antibiotic 2 μg/mL): 151 | glucose concentration, t = 180 ([2]; antibiotic 2 μg/mL): 67 | F = the rate of change in glucose concentration in relation to the reference ([2]; antibiotic 4 μg/mL): 69% | dC/dT (rate of change in glucose concentration) ([2]; antibiotic 4 μg/mL): 43 | glucose concentration, t = 60 ([2]; antibiotic 4 μg/mL): 147 | glucose concentration, t = 120 ([2]; antibiotic 4 μg/mL): 145 | glucose concentration, t = 180 ([2]; antibiotic 4 μg/mL): 61 | F = the rate of change in glucose concentration in relation to the reference ([2]; antibiotic 8 μg/mL): 87% | dC/dT (rate of change in glucose concentration) ([2]; antibiotic 8 μg/mL): 54 | glucose concentration, t = 60 ([2]; antibiotic 8 μg/mL): 159 | glucose concentration, t = 120 ([2]; antibiotic 8 μg/mL): 147 | glucose concentration, t = 180 ([2]; antibiotic 8 μg/mL): 51
